Laboratory results as given in paper PMC8036409 (Molecules, 2021).
Several values for one entry are separate records, joined by “and”; a condition that tells them apart may be missing. Equal values may be shown once. Where a name gives a salt, the structure may show the parent alone. Read-outs that look alike come from different tables or passages of the source.

How the values were obtained:
[1] = target: T1, butyrylcholinesterase (BChE) (Homo sapiens, UniProt P06276); assay: Butyrylcholinesterase inhibition, Ellman's assay; format: biochemical; details: for inhibition at 125 µg/mL / inhibition at 250 µg/mL / inhibition at 500 µg/mL / inhibition at 1000 µg/mL: read-out: Percent BChE (Mean ± SEM), %inhibition
T1 sequence (P06276 29-602, species assumed): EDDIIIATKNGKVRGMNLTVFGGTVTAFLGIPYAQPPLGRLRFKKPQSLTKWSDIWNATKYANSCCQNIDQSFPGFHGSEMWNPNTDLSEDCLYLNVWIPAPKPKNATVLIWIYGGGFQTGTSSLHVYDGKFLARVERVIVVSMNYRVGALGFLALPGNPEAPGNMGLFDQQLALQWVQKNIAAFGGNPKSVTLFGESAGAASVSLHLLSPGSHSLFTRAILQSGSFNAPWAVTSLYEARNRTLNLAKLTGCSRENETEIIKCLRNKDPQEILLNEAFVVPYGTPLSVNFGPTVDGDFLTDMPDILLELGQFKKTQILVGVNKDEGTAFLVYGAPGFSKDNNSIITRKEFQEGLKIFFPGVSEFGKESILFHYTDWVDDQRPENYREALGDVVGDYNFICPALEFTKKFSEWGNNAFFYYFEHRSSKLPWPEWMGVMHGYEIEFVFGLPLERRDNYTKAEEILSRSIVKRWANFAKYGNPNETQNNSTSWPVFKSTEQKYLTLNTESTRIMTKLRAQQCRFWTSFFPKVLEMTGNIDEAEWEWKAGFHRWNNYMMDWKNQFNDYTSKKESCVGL
Description: (§1) AChE and BChE were used as representative enzymes to determine the anticholinesterase effect of isolated compounds using Ellman’s assay with slight modifications. Sample stocks (5 mg/5 mL in methanol) were prepared and a range of serial dilutions (125, 250, 500, 1000 μg/mL) was made from each of them. Phosphate buffer (6.8 pH) was used for making the enzyme and substrate solutions.

[2] = target: T2, acetylcholinesterase (AChE) (Homo sapiens, UniProt P22303); assay: biochemical; details: for inhibition at 250 µg/mL / inhibition at 500 µg/mL / inhibition at 1000 µg/mL / inhibition at 125 µg/mL: read-out: Percent AChE (Mean ± SEM), %inhibition
T2 sequence (P22303 32-614, species assumed): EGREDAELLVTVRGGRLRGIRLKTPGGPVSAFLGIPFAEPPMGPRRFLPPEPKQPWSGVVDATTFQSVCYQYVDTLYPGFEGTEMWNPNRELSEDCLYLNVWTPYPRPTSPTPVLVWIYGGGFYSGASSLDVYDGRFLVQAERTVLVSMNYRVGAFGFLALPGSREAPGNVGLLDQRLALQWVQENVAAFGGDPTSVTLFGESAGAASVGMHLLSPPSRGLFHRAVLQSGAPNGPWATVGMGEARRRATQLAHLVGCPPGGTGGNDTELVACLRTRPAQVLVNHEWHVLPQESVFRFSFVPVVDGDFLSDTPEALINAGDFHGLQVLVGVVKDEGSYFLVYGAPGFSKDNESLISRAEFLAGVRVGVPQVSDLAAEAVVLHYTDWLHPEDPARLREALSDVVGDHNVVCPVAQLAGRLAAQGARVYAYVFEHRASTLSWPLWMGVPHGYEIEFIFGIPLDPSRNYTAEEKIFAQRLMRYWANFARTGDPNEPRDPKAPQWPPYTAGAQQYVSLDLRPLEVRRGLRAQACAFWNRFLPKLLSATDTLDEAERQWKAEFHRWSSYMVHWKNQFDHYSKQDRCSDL
Description: as §1

[3] = target: T1, butyrylcholinesterase (BChE); assay: Butyrylcholinesterase inhibition, Ellman's assay; format: biochemical; details: read-out: Percent BChE (Mean ± SEM), %inhibition
α-amylase = assay: α-Amylase inhibition assay (DNS method); format: biochemical; details: for Percent Inhibition of α-Amylase (Mean ± S.E.M): n = 3
Description: The degree of inhibition was assessed by quantifying maltose equivalents using a slightly modified dinitrosalicylic acid (DNS) method. From each of the sample dilutions, 1 mL was pre-incubated with 1 U/mL α-amylase for half an hour. After incubation, 1 mL of 1% of starch solution was added to the mixture and further incubated for 10 min. To stop the reaction, 1 mL DNS reagent was added to the reaction mixture and heated in a boiling water bath for 5 min. […] The absorbance was measured at 540 nm.

[4] = target: T2, acetylcholinesterase (AChE); assay: biochemical; details: read-out: Percent AChE (Mean ± SEM), %inhibition
[5] = ABTS free radical scavenging assay; details: for ABTS Percent Inhibition (Mean ± S.E.M): n = 3
Description: (§2) The free radical scavenging capacity of the isolated compounds was determined using DPPH and ABTS assays. To prepare the DPPH stock solution, 30 mg of DPPH was dissolved in 100 mL of methanol. Likewise, to prepare ABTS stock solution, 383 mg of 7 mM ABTS and 66.2 mg of 2.45 mM K2S2O8 were taken, each of them was individually dissolved in 100 mL of methanol and mixed together thoroughly. For the free radical development, the solutions were kept in dark for one day. Different dilutions (62.5, 125, 250, 500, 1000 μg/mL) from each of the sample stock solutions (5 mg/5 mL of methanol) were prepared. Each of the dilutions (0.8 mL) was mixed with 0.8 mL of DPPH stock solution and incubated for 15 min and their absorbance was recorded at 515 nm. Likewise, 0.8 mL of each of the same dilutions was mixed with 2 mL of ABTS solution, incubated for 25 min and their absorbance was recorded at 745 nm. The percent scavenging potentials of compounds were calculated using the following equation:(1) Percent scavenging= A−B/A × 100, where A is the absorbance of oxidized stock (DPPH/ABTS) used as control, and B is the absorbance of the sample.

[6] = DPPH free radical scavenging assay; details: for DPPH Percent Inhibition (Mean ± S.E.M): n = 3
Description: as §2

α-glucosidase = α-glucosidase (Saccharomyces cerevisiae, UniProt P53341); assay: α-Glucosidase inhibition assay; format: biochemical
Sequence of α-glucosidase (P53341 whole entry): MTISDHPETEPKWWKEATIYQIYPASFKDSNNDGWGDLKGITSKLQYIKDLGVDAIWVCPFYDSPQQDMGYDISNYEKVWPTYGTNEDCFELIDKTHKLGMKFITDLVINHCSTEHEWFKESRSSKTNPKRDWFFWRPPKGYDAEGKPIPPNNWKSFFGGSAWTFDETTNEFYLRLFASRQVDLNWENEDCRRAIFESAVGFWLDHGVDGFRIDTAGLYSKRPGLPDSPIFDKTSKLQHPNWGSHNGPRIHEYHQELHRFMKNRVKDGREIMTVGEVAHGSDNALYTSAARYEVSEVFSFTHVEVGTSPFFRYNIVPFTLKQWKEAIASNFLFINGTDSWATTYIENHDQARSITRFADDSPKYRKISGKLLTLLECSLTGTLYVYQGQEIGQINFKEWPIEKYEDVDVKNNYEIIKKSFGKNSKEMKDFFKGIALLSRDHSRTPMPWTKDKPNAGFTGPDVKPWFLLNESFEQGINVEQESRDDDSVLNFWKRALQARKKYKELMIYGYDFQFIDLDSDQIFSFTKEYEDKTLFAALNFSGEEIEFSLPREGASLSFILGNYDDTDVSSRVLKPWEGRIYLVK
Description: α-Glucosidase (0.5 unit/mL) was mixed with phosphate buffer (0.1 M, pH 6.9) to make enzyme stock solution. Likewise, a substrate solution (p-nitrophenyl-α-D-glucopyranoside) was also prepared in phosphate buffer. Each of the sample dilutions was mixed with 1 mL of the enzyme solution separately and incubated at 37 °C for 15 min. Sodium carbonate solution (80 µL of 0.2 M) was added to the reaction mixture to stop the reaction, and the absorbance was measured at 405 nm. The % enzyme inhibition was calculated as (5) % inhibition=Control absorbance−Test absorbance /Control absorbance × 100

[7] = read-out: AChE IC50 (converted)

SMILES | IC50 [1] [µM] | inhibition at 125 µg/mL [1] [%] | inhibition at 500 µg/mL [1] [%] | α-Amylase IC50 (α-amylase) [µg/mL] | Percent Inhibition of α-Amylase (Mean ± S.E.M) (α-amylase; 62.5 μg/mL) | Percent Inhibition of α-Amylase (Mean ± S.E.M) (α-amylase; 125 μg/mL) [%] | Percent Inhibition of α-Amylase (Mean ± S.E.M) (α-amylase; 250 μg/mL) [%] | Percent Inhibition of α-Amylase (Mean ± S.E.M) (α-amylase; 500 μg/mL) [%] | Percent Inhibition of α-Amylase (Mean ± S.E.M) (α-amylase; 1000 μg/mL) [%] | ABTS IC50 [5] [µg/mL] | ABTS Percent Inhibition (Mean ± S.E.M) ([5]; 62.5 μg/mL) [%] | ABTS Percent Inhibition (Mean ± S.E.M) ([5]; 125 μg/mL) [%] | ABTS Percent Inhibition (Mean ± S.E.M) ([5]; 250 μg/mL) [%] | ABTS Percent Inhibition (Mean ± S.E.M) ([5]; 500 μg/mL) [%] | ABTS Percent Inhibition (Mean ± S.E.M) ([5]; 1000 μg/mL) [%] | DPPH IC50 [6] [µg/mL] | DPPH Percent Inhibition (Mean ± S.E.M) ([6]; 62.5 μg/mL) [%] | DPPH Percent Inhibition (Mean ± S.E.M) ([6]; 250 μg/mL) [%] | DPPH Percent Inhibition (Mean ± S.E.M) ([6]; 500 μg/mL) [%] | DPPH Percent Inhibition (Mean ± S.E.M) ([6]; 1000 μg/mL) | further results
CC(C)CCCCC1CC2CC(C)(C)C3C4CC(C)(C)C5CC(O)CC(C)C5C4CC(C)C3C2C1 (stereo not shown) [Compound IX, 5,5,7,7,11,13-hexamethyl-2-(5-methylhexyl)icosahydro-1H-cyclopenta[a]chrysen-9-ol] | 186 | 55.4 ± 1.01 | 70.2 ± 0.71 | 122 | 40.13 ± 1.27 % | 50.61 ± 1.52 | 59.14 ± 0.82 | 65.13 ± 1.43 | 70.21 ± 1.91 | 76 | 47.83 ± 2.26 | 57.19 ± 2.01 | 62.24 ± 2.30 | 71.29 ± 1.11 | 79.23 ± 1.01 | 76 | 47.85 ± 2.61 | 64.11 ± 2.91 | 72.19 ± 2.17 | 80.21 ± 040 ^ns percent | inhibition at 250 µg/mL [1]: 63 ± 1.45%; inhibition at 1000 µg/mL [1]: 78 ± 2.62%; IC50 [2, 7]: 186 µM; inhibition at 250 µg/mL [2]: 63.1 ± 1.51%; inhibition at 500 µg/mL [2]: 71.3 ± 1.37%; inhibition at 1000 µg/mL [2]: 78.11 ± 0.61%; inhibition at 62.5 µg/mL [3]: 45.9 ± 1.26%; inhibition at 62.5 µg/mL [4]: 46 ± 1.71%
C[C@H]1O[C@H](O[C@H]2[C@H](O)[C@@H](O)[C@@H](O[C@H]3[C@H](O)[C@@H](O)C(O)O[C@@H]3CO)O[C@@H]2CO)[C@H](O)[C@@H](O)[C@@H]1N[C@H]1C=C(CO)[C@@H](O)[C@H](O)[C@H]1O (stereo partly shown) [Acarbose, reference compound] |  |  |  |  | 48.13 ± 2.09% | 57.03 ± 1.19 | 66.37 ± 1.18 | 77.11 ± 1.41 | 92.12 ± 0.83 |  |  |  |  |  |  |  |  |  |  |  | Percent Inhibition of α-Glucosidase (Mean ± S.E.M) (α-glucosidase): 93.72 ± 1.03% and 67.16 ± 1.58% and 58.73 ± 1.09% and 48.76 ± 2.20%
O=COC(O)O [Compound XI, methanetriol mano formate] | 815 |  |  | 98 | 46.98 ± 2.49 % | 54.13 ± 2.17 | 63.21 ± 1.69 | 70.91 ± 2.11 | 81.90 ± 0.73 | 95 | 46.23 ± 1.49 | 54.30 ± 1.15 | 61.04 ± 2.38 | 70.15 ± 1.16 | 79.17 ± 0.53 | 95 | 46.22 ± 0.60 | 62.13 ± 1.08 | 71.17 ± 2.14 | 80.41 ± 2.16% | inhibition at 125 µg/mL ([1]; 125 μg/mL, n = 3): 57.1 ± 1.31%; inhibition at 250 µg/mL ([1]; 250 μg/mL, n = 3): 63.7 ± 2.24%; inhibition at 500 µg/mL ([1]; 500 μg/mL, n = 3): 71.2 ± 1.31%; inhibition at 1000 µg/mL ([1]; 1000 μg/mL, n = 3): 81.3 ± 1.41%; inhibition at 250 µg/mL ([2]; 250 μg/mL, n = 3): 64.5 ± 3.04%; inhibition at 500 µg/mL ([2]; 500 μg/mL, n = 3): 71.2 ± 2.42%; inhibition at 1000 µg/mL ([2]; 1000 μg/mL, n = 3): 81.4 ± 2.51%; IC50 [2, 7]: 815 µM; inhibition at 62.5 µg/mL ([3]; 62.5 μg/mL, n = 3): 48 ± 2.06%; inhibition at 62.5 µg/mL ([4]; 62.5 μg/mL, n = 3): 48.2 ± 3.34%; DPPH Percent Inhibition (Mean ± S.E.M) ([6]; 125 μg/mL): 54.15 ± 1.28%
CC(C)C(C(=O)O)c1ccc(C(C(=O)O)C(C)C)cc1 (stereo not shown) [Compound XII] | 216 |  |  | 92 | 47.51 ± 1.19 % | 56.10 ± 2.05 | 66.94 ± 1.11 | 74.25 ± 1.06 | 79.07 ± 1.43 | 62 | 50.51 ± 1.19 | 60.20 ± 3.05 | 71.44 ± 2.11 | 77.15 ± 1.06 | 86.07 ± 1.43 | 60 | 51.02 ± 1.30 | 71.13 ± 1.31 | 78.17 ± 1.04 | 86.54 ±2.16% | inhibition at 125 µg/mL ([1]; 125 μg/mL, n = 3): 64.4 ± 1.85%; inhibition at 250 µg/mL ([1]; 250 μg/mL, n = 3): 77.1 ± 2.26%; inhibition at 500 µg/mL ([1]; 500 μg/mL, n = 3): 85.1 ± 2.06%; inhibition at 1000 µg/mL ([1]; 1000 μg/mL, n = 3): 93.89 ± 0.81%; inhibition at 125 µg/mL ([2]; 125 μg/mL, n = 3): 61.2 ± 1.71%; inhibition at 250 µg/mL ([2]; 250 μg/mL, n = 3): 69.3 ± 1.38%; inhibition at 500 µg/mL ([2]; 500 μg/mL, n = 3): 76.2 ± 1.01%; inhibition at 1000 µg/mL ([2]; 1000 μg/mL, n = 3): 84.4 ± 1.36%; IC50 [2, 7]: 198 µM; inhibition at 62.5 µg/mL ([3]; 62.5 μg/mL, n = 3): 50.4 ± 1.11%; inhibition at 62.5 µg/mL ([4]; 62.5 μg/mL, n = 3): 52.5 ± 1.47%; DPPH Percent Inhibition (Mean ± S.E.M) ([6]; 125 μg/mL): 61.75 ± 1.78%
COc1ccc2c3c1O[C@H]1C[C@@H](O)C=C[C@@]31CCN(C)C2 [Galanthamine, reference compound] |  | 64.4 ± 1.85 | 85.1 ± 2.06 |  |  |  |  |  |  |  |  |  |  |  |  |  |  |  |  |  | inhibition at 1000 µg/mL [1]: 93.89 ± 0.81%
CCCCCCCCCCCCCCCCCCCCCC(=O)O [Compound X, docosanoic acid] | 382 | 49.13 ± 0.31 | 62 ± 0.78 | 125 | 40.01 ± 2.06 ^ns % | 50.11 ± 1.31 | 59.11 ± 2.13 | 65.19 ± 1.28 |  | 95 | 46.01 ± 1.06 | 54.13 ± 0.31 | 60.11 ± 1.90 | 68.99 ± 1.88 | 78.03 ± 1.51 | 95 | 46.17 ± 3.01 | 60.61 ± 0.71 | 69.19 ± 2.27 | 78.81 ± 2.10% | inhibition at 250 µg/mL [1]: 55.5 ± 0.8%; inhibition at 1000 µg/mL [1]: 69.1 ± 2.01%; IC50 [2]: 382 µM; inhibition at 125 µg/mL [2]: 49.3 ± 2.32%; inhibition at 250 µg/mL [2]: 56.1 ± 1.51%; inhibition at 500 µg/mL [2]: 62.5 ± 1.37%; inhibition at 1000 µg/mL [2]: 70.1 ± 1.4%; inhibition at 62.5 µg/mL [3]: 43 ± 1.06%; inhibition at 62.5 µg/mL [4]: 43.2 ± 3.01%
O=C1O[C@H]([C@@H](O)CO)C(O)=C1O [Ascorbic Acid, reference compound] |  |  |  |  |  |  |  |  |  | 35 | 55.41 ± 1.39 | 63.30 ± 2.75 | 75.14 ± 3.16 | 83.45 ± 2.26 | 93.07 ± 0.53 | 35 | 55.12 ± 1.30 | 78.63 ± 1.48 | 87.87 ± 1.64 | 94.14 ± 1.76% | DPPH Percent Inhibition (Mean ± S.E.M) ([6]; 125 μg/mL): 65.35 ± 1.08%
